# Laboratory results from patent publication US4076830A, “Alkylmethanodibenzocycloheptapyrroles” (E. I. Du Pont de Nemours and Company, priority 1976, dated 1978).
# Where a name gives a salt, the structure may show the parent alone. Read-outs that look alike come from different tables or passages of the source.
# How the values were obtained:
# [1] = system: phenylquinone-induced writhing; assay: analgesic activity: prevention of phenylquinone-induced writhing in mice; format: in vivo, mouse (Carworth CF1 S female mice); details: oral, phenylquinone 1.1 mg/kg intraperitoneally
# Text: This mouse test is predictive of analgesic response in humans. [E. Siegmund, R. Cadmus and G. Lee, Proc. Soc.
# ED50 values were obtained graphically from the data.
# female white mice = assay: general tranquilizer activity in mice (exploratory loss, ptosis, catatonia, muscle tone, grip and lift reflexes, pinna twitch reflex, tremors, death); details: for ED50: Mus musculus, po
# Description: (§1) Groups of five Carworth CF1 S female mice, 16-20 g each, were fasted 16-22 hours before use. The mice were put in opaque plastic "shoe-box" cages 15-30 min. before injection, and then treated orally with 4, 12, 36, 108 and 324 mg/kg of the compound to be tested […] in 1% aqueous distilled water solution of methylcellulose (Methocel®). Each dose was given in a standard volume of 0.45 ml. Observations were made at 0.5, 2 and 24 hours after dosing. ED50 values were calculated for each parameter including death (LD50). The ED50 and LD50 values are the doses at which 50% of the animals would be expected to respond.
# (§2) Exploratory Activity - The mouse is placed on a stainless steel wire mesh screen (8 inches × 12 inches, 3 mesh per inch, 174 inch mesh openings) "shoe-box" lid (1 inch high) and is observed for normal activities, such as nose movements, head movements with apparent visual examination of the area, and/or walking around on the screen. Absence of or marked depression of these activities for 5 seconds constitutes loss of exploratory activity.
# (§3) Ptosis - The mouse is picked up by the tail and placed on the screen with its head facing the observer. Bilateral eyelid closure of 50% or more two seconds after placement is considered ptosis.
# (§4) Catatonia - The mouse is placed with its front paws on the edge of a stainless steel "shoe-box" cover, 1 inch high, covered with adhesive tape. Failure to remove both paws from the cover's edge within 5 seconds constitutes catatonia.
# (§5) Muscle Tone - The observer gently strokes the abdominal musculature of the mouse with thumb and forefinger. Flaccidity (or rarely, tenseness) is recorded.
# (§6) Grip and Lift Reflexes - The mouse is gently swung by the tail toward a horizontal 12 gauge wire tautly stretched 25 cm above the bench. After the mouse grasps the wire with its forepaws, its posterior end is held directly below the wire. A normal mouse grasps the wire with its forepaws and immediately lifts its hind limbs to the wire. Failure to grasp the wire with the forepaws in both trials constitutes loss of the grip reflex; failure to lift the hind limbs to grasp the wire with at least one hind paw within 5 seconds constitutes loss of the lift reflex.
# (§7) Pinna Twitch Reflex - The mouse is placed on the bar 10-20 cm horizontally and 9 cm vertically from a Galton whistle adjusted for 13 kc (5 mm on the whistle scale) and is subjected to several short bursts of sound.
# (§8) The ED50 values, i.e., the dose which caused the response in 50% of the mice, are tabulated.
# [2] = as above; details: mouse, in vivo, po
# Description: as §1, §2, §3, §4, §5, §6, §7, §8
# [3] = read-out: ED50 Catatonia, oral, mice, observed at 0.5, 2 and 24 hours
# [4] = read-out: ED50 Exploratory Loss Visual, oral, mice, observed at 0.5, 2 and 24 hours
# [5] = read-out: ED50 Muscle Tone, oral, mice, observed at 0.5, 2 and 24 hours
# [6] = read-out: ED50 Ptosis, oral, mice, observed at 0.5, 2 and 24 hours
# [7] = read-out: ED50 Reflexes Grip, oral, mice, observed at 0.5, 2 and 24 hours
# [8] = read-out: ED50 Reflexes Lift, oral, mice, observed at 0.5, 2 and 24 hours
# [9] = read-out: ED50 Reflexes Pinna, oral, mice, observed at 0.5, 2 and 24 hours
# [10] = read-out: ED50 Tremors, oral, mice, observed at 0.5, 2 and 24 hours
# [11] = oral, mice, observed at 0.5, 2 and 24 hours
# [12] = oral, mice, observed at 0.5, 2 and 24 hours, hydrochloride
Structure (SMILES),"ED50 ([1]; Mus musculus, dose blocking writhing in 50% of mice, read-out: ED50 Phenylquinone Analgesia)",ED50 (female white mice; [3]),ED50 (female white mice; [4]),ED50 (female white mice; [5]),ED50 (female white mice; [6]),ED50 (female white mice; [7]),ED50 (female white mice; [8]),ED50 (female white mice; [9]),ED50 (female white mice; [10]),LD50 at 24 h [2],Phenylquinone Analgesia (activity in words) [1],"LD50 (female white mice; 24-hour value, oral, mice)",ED50 Muscle Tone (female white mice; [11]),ED50 Reflexes Grip (female white mice; [11]),ED50 Tremors (female white mice; [11]),ED50 Catatonia (female white mice; [12]),ED50 Exploratory Loss Visual (female white mice; [12]),ED50 Ptosis (female white mice; [12]),ED50 Reflexes Lift (female white mice; [12]),ED50 Reflexes Pinna (female white mice; [12])
"C[C@]12C[C@@]3(CN(CC4CCCCC4)C[C@@H]3c3ccccc31)c1ccccc12 (relative stereo) [Example 1, 2-Cyclohexylmethyl-8-methyl-trans-2,3,8,12b-tetra-hydro-1H-3a,8-methanodibenzo[3,4:6,7]cyclohepta[1,2-c]-pyrrole Hydrochloride]",30 mg/kg,109 mg/kg,87 mg/kg,109 mg/kg,87 mg/kg,> 324 mg/kg,97 mg/kg,109 mg/kg,> 324 mg/kg,> 324 mg/kg,–,–,–,–,–,–,–,–,–,–
"CN1C[C@@H]2c3ccccc3[C@]3(C)C[C@@]2(C1)c1ccccc13 (relative stereo) [Example 2, 2,8-Dimethyl-trans-2,3,8,12b-tetrahydro-1H-3a,8-methanodibenzo[3,4:6,7]cyclohepta[1,2-c]pyrrole Hydrochloride]",–,60 mg/kg,60 mg/kg,36 mg/kg,60 mg/kg,60 mg/kg,60 mg/kg,60 mg/kg,60 mg/kg,300 mg/kg,Active,–,–,–,–,–,–,–,–,–
"CN(C)CCCN1c2ccccc2Sc2ccc(Cl)cc21 [Chlorpromazine, reference compound]",–,8 mg/kg,7 mg/kg,8 mg/kg,7 mg/kg,240 mg/kg,8 mg/kg,5 mg/kg,> 324 mg/kg,850 mg/kg,–,–,–,–,–,–,–,–,–,–
"CN1C(=O)CN=C(c2ccccc2)c2cc(Cl)ccc21 [Diazepam, reference compound]",–,59 mg/kg,87 mg/kg,89 mg/kg,79 mg/kg,78 mg/kg,4.4 mg/kg,63 mg/kg,> 324 mg/kg,–,–,–,–,–,–,–,–,–,–,–
"CC1[C@@H]2c3ccccc3[C@@H]3C[C@@]2(CN1CC1CCCC1)c1ccccc13 (stereo partly drawn) [Example 3g, 2-cyclopentylmethyl-1-methyl-trans-2,3,8,12b-tetrahydro-1H-3a,8-methanodibenzo[3,4:6,7]cyclohepta[1,2-c]pyrrole, hydrochloride]",–,20 mg/kg,7 mg/kg,20 mg/kg,12 mg/kg,> 324 mg/kg,36 mg/kg,20 mg/kg,> 324 mg/kg,> 324 mg/kg,Active,–,–,–,–,–,–,–,–,–
"CC1[C@@H]2c3ccccc3[C@@H]3C[C@@]2(CN1CC1CCCC1)c1ccccc13 (stereo partly drawn) [Example 3h, 2-cyclopentylmethyl-1-methyl-trans-2,3,8,12b-tetrahydro-1H-3a,8-methanodibenzo[3,4:6,7]-cyclohepta[1,2-c]pyrrole hydrochloride]",–,–,–,–,–,–,–,–,–,–,–,> 324 mg/kg,20 mg/kg,> 324 mg/kg,> 324 mg/kg,12 mg/kg,< 4 mg/kg,20 mg/kg,20 mg/kg,12 mg/kg
